In patent US20200325177A1, “METHODS OF MAKING STREPTOGRAMIN COMPOSITIONS AND THE USE THEREOF” (THE REGENTS OF THE UNIVERSITY OF CALIFORNIA, priority 2017, published 2020):
In brackets after ≈: the same amount, converted by molar mass. Like-named read-outs stand apart in the source and are kept apart here.

Tests used:
Assay type in all cases: cell-based
P. aeruginosa ATCC 27853 = assay: MIC, Gram-negative bacteria: P. aeruginosa ATCC 27853; settings: Pseudomonas aeruginosa, ATCC27853, read-out: Minimal Inhibitory Concentration (MIC) P. aeruginosa ATCC 27853
Gram-Negative Organisms = assay: microbe, parasite or virus in culture
S. pneumoniae = assay: MIC, Gram-positive bacteria: S. pneumoniae; settings: Streptococcus pneumoniae, column 10, read-out: Minimal Inhibitory Concentration (MIC) S. pneumoniae
[1] = tested on: K. pneumoniae multidrug-resistant; assay: MIC, Gram-negative bacteria: K. pneumoniae multidrug-resistant; settings: Klebsiella pneumoniae, read-out: Minimal Inhibitory Concentration (MIC) K. pneumoniae multidrug-resistant
[2] = tested on: S. aureus Vat A streptogramin; assay: MIC, Gram-positive bacteria: S. aureus Vat A streptogramin; settings: Staphylococcus aureus; Gram-positive; column 5; read-out: Minimal Inhibitory Concentration (MIC) S. aureus Vat A streptogramin
S. aureus = assay: MIC, Gram-positive bacteria: S. aureus (strains not named); settings: Staphylococcus aureus, read-out: Minimal Inhibitory Concentration (MIC) S. aureus
H. influenzae ATCC 49247 = assay: MIC, Gram-negative bacteria: H. influenzae ATCC 49247; settings: Haemophilus influenzae, ATCC49247, read-out: Minimal Inhibitory Concentration (MIC) H. influenzae ATCC 49247
[3] = tested on: S. aureus Linezolid-resistant; cfr; assay: MIC, Gram-positive bacteria: S. aureus Linezolid-resistant; cfr; settings: Staphylococcus aureus, column 9, read-out: Minimal Inhibitory Concentration (MIC) S. aureus Linezolid-resistant
[4] = tested on: P. aeruginosa MDR clinical isolate; assay: MIC, Gram-negative bacteria: P. aeruginosa MDR clinical isolate; settings: Pseudomonas aeruginosa, read-out: Minimal Inhibitory Concentration (MIC) P. aeruginosa MDR clinical isolate
E. faecium VRE; vanA = assay: MIC, Gram-positive bacteria: E. faecium VRE; vanA; settings: Enterococcus faecium, column 3, read-out: Minimal Inhibitory Concentration (MIC) E. faecium VRE
E. faecalis = assay: MIC, Gram-positive bacteria: E. faecalis; settings: Enterococcus faecalis, column 1, read-out: Minimal Inhibitory Concentration (MIC) E. faecalis
E. faecium ATCC 35667 = assay: MIC, Gram-positive bacteria: E. faecium ATCC 35667; settings: Enterococcus faecium, ATCC35667, column 2, read-out: Minimal Inhibitory Concentration (MIC) E. faecium ATCC 35667
[5] = Acinetobacter baumannii, ATCC19606, read-out: Minimal Inhibitory Concentration (MIC), A. baumannii ATCC 19606
[6] = Escherichia coli, ATCC25922, read-out: Minimal Inhibitory Concentration (MIC), E. coli ATCC 25922
[7] = Escherichia coli, read-out: Minimal Inhibitory Concentration (MIC), E. coli BAS2006, OMP C, OMP F
[8] = Escherichia coli, read-out: Minimal Inhibitory Concentration (MIC), E. coli olC efflux defective
[9] = Escherichia coli, read-out: Minimal Inhibitory Concentration (MIC), E. coli permeability mutant BAS1314, IMP4213ZAB::TN10
[10] = Escherichia coli, read-out: Minimal Inhibitory Concentration (MIC), E. coli ΔompC768, KanR insert
[11] = Klebsiella pneumoniae, ATCC43816, read-out: Minimal Inhibitory Concentration (MIC), K. pneumoniae ATCC 43816
[12] = first unnamed S. aureus column (c4)
[13] = fourth unnamed S. aureus column (c8)
[14] = second unnamed S. aureus column (c6)
[15] = third unnamed S. aureus column (c7)

SMILES	MIC (P. aeruginosa ATCC 27853) [µg/mL]	MIC (Gram-Negative Organisms; [5]) [µg/mL]	MIC (Gram-Negative Organisms; [6]) [µg/mL]	MIC (Gram-Negative Organisms; [7]) [µg/mL]	MIC (Gram-Negative Organisms; [8]) [µg/mL]	MIC (Gram-Negative Organisms; [9]) [µg/mL]	MIC (Gram-Negative Organisms; [10]) [µg/mL]	MIC (Gram-Negative Organisms; [11]) [µg/mL]	MIC (S. pneumoniae) [µg/mL]	MIC [1] [µg/mL]	MIC [2] [µg/mL]	MIC (S. aureus; [12]) [µg/mL]	MIC (S. aureus; [13]) [µg/mL]	MIC (S. aureus; [14]) [µg/mL]	MIC (S. aureus; [15]) [µg/mL]	MIC (H. influenzae ATCC 49247) [µg/mL]	MIC [3] [µg/mL]	MIC [4] [µg/mL]	MIC (E. faecium VRE; vanA) [µg/mL]	MIC (E. faecalis) [µg/mL]	further results
CC1=C\[C@@H](O)CC(=O)Cc2nc(co2)C(=O)N2CCC[C@@H]2C(=O)O[C@H]([C@H](C)COC(=O)Nc2ccc3ccccc3n2)[C@H](C)/C=C/C(=O)NC\C=C\1 [SA0110223]	> 64	> 64	> 64	16 (≈ 22.4 µM)	2 (≈ 2.8 µM)	2 (≈ 2.8 µM)	> 64	> 64	32 (≈ 44.8 µM)	> 64	32 (≈ 44.8 µM)	8 (≈ 11.2 µM)	4 (≈ 5.6 µM)	8 (≈ 11.2 µM)	16 (≈ 22.4 µM)	8 (≈ 11.2 µM)	> 64	> 64	16 (≈ 22.4 µM)	> 64	MIC (E. faecium ATCC 35667): 4 µg/mL (≈ 5.6 µM)
CC1=C\[C@@H](O)CC(=O)Cc2nc(co2)C(=O)N2CCC[C@@H]2C(=O)O[C@H]([C@H](C)COC(=O)Nc2cc(C)on2)[C@H](C)/C=C/C(=O)NC\C=C\1 [SA0110225]	> 64	> 64	> 64	> 64	4 (≈ 5.99 µM)	8 (≈ 12 µM)	> 64	> 64	32 (≈ 47.9 µM)	> 64	> 64	> 64	64 (≈ 95.8 µM)	64 (≈ 95.8 µM)	> 64	16 (≈ 24 µM)	> 64	> 64	64 (≈ 95.8 µM)	> 64	MIC (E. faecium ATCC 35667): 32 µg/mL (≈ 47.9 µM)
CC(C)[C@H]1OC(=O)[C@H]2CCCN2C(=O)c2coc(n2)CC(=O)C[C@H](O)/C=C/C=C/CNC(=O)/C=C/[C@H]1C [SA0110239]	> 64	> 64	> 64	64 (≈ 125 µM)	8 (≈ 15.6 µM)	8 (≈ 15.6 µM)	> 64	> 64	64 (≈ 125 µM)	> 64	> 64	> 64	> 64	> 64	> 64	> 64	> 64	> 64	> 64	> 64	MIC (E. faecium ATCC 35667): > 64 µg/mL
CC1=C\[C@@H](O)CC(=O)Cc2nc(co2)C(=O)N2CCC[C@@H]2C(=O)O[C@H]([C@@H](C)CN2CCN(C)CC2)[C@H](C)/C=C/C(=O)NC\C=C\1 [SA0110241]	> 64	> 64	> 64	> 64	> 64	> 64	> 64	> 64	> 64	> 64	> 64	> 64	> 64	> 64	> 64	> 64	> 64	> 64	> 64	> 64	MIC (E. faecium ATCC 35667): > 64 µg/mL
CC1=C\[C@@H](O)CC(=O)Cc2nc(co2)C(=O)N2CCC[C@@H]2C(=O)O[C@H]([C@@H](C)CN2CCC(N(C)C)CC2)[C@H](C)/C=C/C(=O)NC\C=C\1 [SA0110252]	> 64	> 64	> 64	> 64	> 64	> 64	> 64	> 64	> 64	> 64	> 64	> 64	> 64	> 64	> 64	> 64	> 64	> 64	> 64	> 64	MIC (E. faecium ATCC 35667): > 64 µg/mL
